According to ChEMBL document CHEMBL1201862, “PubChem BioAssay data set” (2004):
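Dose response: 5 concentrations. Exposure: 48 h. Format: 96-well plates. Endpoint: linear interpolation; highest concentration if not reached. GI50 = concentration required for 50% inhibition of growth.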 Activity calls are given as the source filed them. Cut-off read from the data, not from the text of the source: active = GI50 up to about 1.1 µM and inactive = higher.

Experiments:
Test in all cases: inhibition of tumour cell growth, NCI panel, 48 h
A549 = system: A549
ACHN = system: ACHN
HCT-116 = system: HCT-116
IGROV-1 = system: IGROV-1
LOX IMVI = system: LOX IMVI
MDA-MB-231 = system: MDA-MB-231
MDA-N = system: MDA-N
MOLT-4 = system: MOLT-4
Malme-3M = system: Malme-3M
NCI-H460 = system: NCI-H460
NCI/ADR-RES = system: NCI/ADR-RES
OVCAR-4 = system: OVCAR-4
OVCAR-5 = system: OVCAR-5
RXF 393 = system: RXF 393
SK-OV-3 = system: SK-OV-3
SNB-19 = system: SNB-19
SR = system: SR
T47D = system: T47D
TK-10 = system: TK-10
U-251 = system: U-251

SMILES | GI50 (A549) | GI50 (ACHN) | GI50 (HCT-116) | GI50 (IGROV-1) | GI50 (LOX IMVI) | GI50 (MDA-MB-231) | GI50 (MDA-N) | GI50 (MOLT-4) | GI50 (Malme-3M) | GI50 (NCI-H460) | GI50 (NCI/ADR-RES) | GI50 (OVCAR-4) | GI50 (OVCAR-5) | GI50 (RXF 393) | GI50 (SK-OV-3) | GI50 (SNB-19) | GI50 (SR) | GI50 (T47D) | GI50 (TK-10) | GI50 (U-251)
CC12CC3OC(=O)C1COC14OC5(C2C1=O)C(O)(CCC1C4CC2OC24CC=CC(=O)C14C)C(=O)OC35C (stereo not given) | 27 µM (inactive) | 16.4 µM (inactive) | 11.6 µM (inactive) | 18.4 µM (inactive) | 11.3 µM (inactive) | 18.5 µM (inactive) | 12.4 µM (inactive) | 15.5 µM (inactive) | 18.5 µM (inactive) | 30.4 µM (inactive) | 38.1 µM (inactive) | 66.2 µM (inactive) | 18.4 µM (inactive) | 3.99 µM (inactive) | 28.6 µM (inactive) | 20 µM (inactive) | 8.85 µM (inactive) | 15.7 µM (inactive) | 13.6 µM (inactive) | 14.5 µM (inactive)
O=C(O)C1C2c3ccccc3C(c3ccccc32)C1C(=O)NCC1CC1 (stereo not given) | 62.2 µM (inactive) | 78 µM (inactive) | 47.4 µM (inactive) | 72.6 µM (inactive) | 65.8 µM (inactive) | > 100 µM (inactive) | 48.2 µM (inactive) | 29.9 µM (inactive) | > 100 µM (inactive) | 40.2 µM (inactive) | 32.4 µM (inactive) | 79.1 µM (inactive) | > 100 µM (inactive) | 97.5 µM (inactive) | 56.2 µM (inactive) | > 100 µM (inactive) | 45 µM (inactive) | 56.8 µM (inactive) | 32.4 µM (inactive) | 47 µM (inactive)
COc1ccc(/C(C)=N/OC(=O)c2c(-c3ccccc3Cl)noc2C)cc1CN1CCOCC1 | 19.1 µM (inactive) | 15.7 µM (inactive) | 18.2 µM (inactive) | 21.1 µM (inactive) | 14.9 µM (inactive) | 20 µM (inactive) | 18.8 µM (inactive) | 24 µM (inactive) | 21.2 µM (inactive) | 29 µM (inactive) | 34.1 µM (inactive) | 29.4 µM (inactive) | 12.8 µM (inactive) | 26.3 µM (inactive) | 29.4 µM (inactive) | 16.2 µM (inactive) | 25 µM (inactive) | 16.4 µM (inactive) | 43.1 µM (inactive) | 25.4 µM (inactive)
COc1ccc(OC)c2c1C[C@@H]1C(C#N)N3[C@H](Cc4c(OC)ccc(OC)c4[C@@H]3C)C(=O)N1[C@H]2C (stereo not given in full) | 9.53 µM (inactive) | 2.8 µM (inactive) | 3.83 µM (inactive) | 4.56 µM (inactive) | 2.44 µM (inactive) | 2.08 µM (inactive) | 4.33 µM (inactive) | 2.43 µM (inactive) | 2.87 µM (inactive) | 7.85 µM (inactive) | 4.12 µM (inactive) | 3.23 µM (inactive) | 8.09 µM (inactive) | 1.83 µM (inactive) | 11.9 µM (inactive) | 2.15 µM (inactive) | 2.15 µM (inactive) | 3.11 µM (inactive) | 3.57 µM (inactive) | 2.26 µM (inactive)
CCOC(=O)NC(Nc1ncn(C(NC(=O)OCC)(C(F)(F)F)C(F)(F)F)n1)(C(F)(F)F)C(F)(F)F | > 100 µM (inactive) | > 100 µM (inactive) | > 100 µM (inactive) | > 100 µM (inactive) | > 100 µM (inactive) | > 100 µM (inactive) | > 100 µM (inactive) | > 100 µM (inactive) | > 100 µM (inactive) | > 100 µM (inactive) | > 100 µM (inactive) | > 100 µM (inactive) | > 100 µM (inactive) | > 100 µM (inactive) | > 100 µM (inactive) | > 100 µM (inactive) | > 100 µM (inactive) | 49 µM (inactive) | > 100 µM (inactive) | > 100 µM (inactive)
COc1cccc2c1CCc1c(-c3ccc(F)cc3)cc(-c3ccc4ccccc4n3)nc1-2 | > 100 µM (inactive) | > 100 µM (inactive) | > 100 µM (inactive) | > 100 µM (inactive) | > 100 µM (inactive) | > 100 µM (inactive) | > 100 µM (inactive) | > 100 µM (inactive) | > 100 µM (inactive) | > 100 µM (inactive) | > 100 µM (inactive) | > 100 µM (inactive) | > 100 µM (inactive) | > 100 µM (inactive) | > 100 µM (inactive) | > 100 µM (inactive) | > 100 µM (inactive) | > 100 µM (inactive) | > 100 µM (inactive) | > 100 µM (inactive)
COc1cccc2c1C(=O)c1c(O)c3c(c(O)c1C2=O)C[C@@](O)(C(=O)CO)CC3OC1CC(N)C(OC2CCCCO2)C(C)O1 (stereo not given in full) | 0.256 µM (active) | 0.24 µM (active) | 0.324 µM (active) | 0.929 µM (active) | 0.356 µM (active) | 0.0802 µM (active) | 0.124 µM (active) | 0.0315 µM (active) | 0.664 µM (active) | 0.0134 µM (active) | 0.959 µM (active) | 0.0366 µM (active) | 1.71 µM (inactive) | 1.48 µM (inactive) | 0.807 µM (active) | 0.437 µM (active) | 0.0314 µM (active) | 0.00871 µM (active) | 1.37 µM (inactive) | 0.402 µM (active)
